Data: patent US20200071361A1, “ENGINEERED ANTIMICROBIAL AMPHIPHILIC PEPTIDES AND METHODS OF USE” (priority 2017, published 2020)
In brackets after ≈: the same amount, converted by molar mass.

Columns and labels:
[1] = system: Escherichia coli ATCC 35218 (ESBL); test: Broth microdilution MIC (Table 2); type: cell-based; settings: ATCC35218
Experimental: (§1) Each peptide was formulated in PBS buffer prior to testing. Peptides of SEQ ID NO:5 and SEQ ID NO:8 were brought up in 100% DMSO with 0.002% polysorbate-80 at 1.28 mg/mL (40× the highest final test concentration of 32 mcg/mL). Final test concentration of DMSO was 2.5% in the assay at the first dilution for those two compounds.
(§2) Mueller Hinton II broth (MHB II; BD; Lot Nos. 6258541 and 7143896) was used for MIC testing of aerobic organisms. 0.002% polysorbate 80 (P80) was added to the test medium.
(§3) MIC values were determined using a broth microdilution procedure described by CLSI (1, 3). Automated liquid handlers (Multidrop 384, Labsystems, Helsinki, Finland; Biomek 2000 and Biomek FX, Beckman Coulter, Fullerton Calif.) were used to conduct serial dilutions and liquid transfers.
(§4) To prepare the drug mother plates, which would provide the serial peptide dilutions for the replicate daughter plates, the wells of columns 2-12 of standard 96-well microdilution plates (Costar 3795) were filled with 150 μl of the designated diluent for each row of peptide. The test articles and comparator compounds (300 μl at 40× the highest concentration to be tested) were dispensed into the appropriate wells in column 1. The Biomek 2000 was then used to make 2-fold serial dilutions in the mother plates from column 1 through column 11. The wells of Column 12 contained no drug and served as the organism growth control wells for the assay.
(§5) The daughter plates were loaded with 185 μL per well of MHB II using the Multidrop 384. The daughter plates were completed on the Biomek FX instrument which transferred 5 uL of peptide solution from each well of a mother plate to the corresponding well of each daughter plate in a single step. A standardized inoculum of each test organism was prepared per CLSI methods. The inoculum for each organism was dispensed into sterile reservoirs divided by length (Beckman Coulter), and the Biomek 2000 was used to inoculate the plates. Daughter plates were placed on the Biomek 2000 work surface in reverse orientation so that inoculation took place from low to high drug concentration. The plates were then inoculated with 10 μL of the inoculum resulting in a final cell density of approximately 5×10^5 CFU/mL, per well.
(§6) Plates were stacked 3-4 high, covered with a lid on the top plate, placed in plastic bags, and incubated at 35° C. for 16 to 20 hrs. Following incubation, the microplates were removed from the incubator and viewed from the bottom using a plate viewer. […] The MIC was read and recorded as the lowest concentration of peptide that inhibited visible growth of the organism.

[2] = system: Streptococcus agalactiae ATCC 13813; test: Broth microdilution MIC (Table 2); type: cell-based; settings: ATCC13813, read-out: MIC
Experimental: as §1, §2, §3, §4, §5, §6

[3] = system: Acinetobacter baumannii ATCC BAA-1797 (MDR); test: Broth microdilution MIC (Table 2); type: cell-based; settings: ATCCBAA1797, read-out: MIC
Experimental: as §1, §2, §3, §4, §5, §6

[4] = system: Staphylococcus aureus ATCC 29213 (MSSA; QC); test: Broth microdilution MIC (Table 2); type: cell-based; settings: read-out: MIC
Experimental: as §1, §2, §3, §4, §5, §6

[5] = system: Pseudomonas aeruginosa ATCC BAA-2109 (MDR); test: Broth microdilution MIC (Table 2); type: cell-based; settings: ATCCBAA2109
Experimental: as §1, §2, §3, §4, §5, §6

[6] = system: Streptococcus pyogenes ATCC 49399; test: Broth microdilution MIC (Table 2); type: cell-based; settings: ATCC49399, read-out: MIC
Experimental: as §1, §2, §3, §4, §5, §6

[7] = system: Pseudomonas aeruginosa ATCC 27853 (non-MDR; QC); test: Broth microdilution MIC (Table 2); type: cell-based; settings: ATCC27853, read-out: MIC
Experimental: as §1, §2, §3, §4, §5, §6

[8] = system: Enterococcus faecalis ATCC 700802 (V583 VRE); test: Broth microdilution MIC (Table 2); type: cell-based; settings: read-out: MIC
Experimental: as §1, §2, §3, §4, §5, §6

[9] = system: Acinetobacter baumannii ATCC 19606 (non-MDR); test: Broth microdilution MIC (Table 2); type: cell-based; settings: ATCC19606, read-out: MIC
Experimental: as §1, §2, §3, §4, §5, §6

[10] = system: Escherichia coli ATCC 25922 (QC); test: Broth microdilution MIC (Table 2); type: cell-based; settings: ATCC25922
Experimental: as §1, §2, §3, §4, §5, §6

[11] = system: Enterococcus faecalis ATCC 29212 (VSE; QC); test: Broth microdilution MIC (Table 2); type: cell-based; settings: ATCC29212, read-out: MIC
Experimental: as §1, §2, §3, §4, §5, §6

[12] = system: Enterobacter spp. isolates (n = 102); test: Broth microdilution MIC, clinical isolate panel; type: cell-based, Enterobacter aerogenes and E. cloacae; settings: Enterobacter spp. (n = 102)
Experimental: (§7) Comparator antibiotics were supplied by Micromyx, and stock solutions were prepared on the first day of testing using solvents recommended by CLSI (1). Stock solutions of all compounds were made at 40× the final testing concentration and stored at −80° C. prior to testing. Information regarding compound source, catalog and lot number, testing concentrations and drug diluent for the comparators and test agent are detailed below in Table 3.
(§8) The test organisms evaluated in this study consisted of clinical isolates from the Micromyx Repository and reference isolates from the American Type Culture Collection (ATCC; Manassas, Va.). The clinical isolates were obtained from USA hospitals. Upon initial receipt at Micromyx, the organisms were sub-cultured onto an appropriate agar medium. Following incubation, colonies were harvested from these plates and cell suspensions prepared and frozen at −80° C. with a cryoprotectant. Prior to testing, the isolates were streaked from frozen vials onto Trypticase Soy Agar with 5% sheep blood (Becton Dickenson [BD]; Sparks, Md.; Lot Nos. 7173618, 7166759, 7208688, 72144895, 7228505 and Remel Lenexa, Kans. Lot No. 212574). Plates were incubated at 35° C. overnight.
(§9) Mueller Hinton II broth (MHB II; BD; Lot Nos. 6258541 and 7143896) was used for MIC testing of aerobic organisms.
as §3
as §4, with “drug” for “peptide”, “drug.” for “peptide.”
The daughter plates were loaded with 185 μL per well of MHB II using the Multidrop 384. The daughter plates were completed on the Biomek FX instrument which transferred 5 µL of drug solution from each well of a mother plate to the corresponding well of each daughter plate in a single step. […]
Plates were stacked 3-4 high, covered with a lid on the top plate, placed in plastic bags, and incubated at 35° C. for 16 to 20 hrs. […] The MIC was read and recorded as the lowest concentration of drug that inhibited visible growth of the organism. […]

[13] = system: Acinetobacter spp. isolates (n = 104); test: Broth microdilution MIC, clinical isolate panel; type: cell-based; settings: Acinetobacter spp. (n = 104)
Experimental: as §7, §8, §9, §3
as §4, with “drug” for “peptide”, “drug.” for “peptide.”
as §5, with “µL” for “uL”, “drug” for “peptide”, “methods (1).” for “methods.”, “concentration.” for “concentration. The plates were then inoculated with 10 μL of the inoculum resulting in a final cell density of approximately 5×10^5 CFU/mL, per well.”
(§10) Plates were stacked 3-4 high, covered with a lid on the top plate, placed in plastic bags, and incubated at 35° C. for 16 to 20 hrs. Following incubation, the microplates were removed from the incubator and viewed from the bottom using a plate viewer. […] The MIC was read and recorded as the lowest concentration of drug that inhibited visible growth of the organism.
(§11) Clinical breakpoints to determine percent resistance within a given organism group were obtained from CLSI (3), with the exception of colistin for K. pneumoniae, Enterobacter spp., and E. coli, which are only available from EUCAST.

[14] = system: Escherichia coli isolates (n = 101); test: Broth microdilution MIC, clinical isolate panel; type: cell-based; settings: Escherichia coli (n = 101)
Experimental: as §7, §8, §9, §3
as §4, with “drug” for “peptide”, “drug.” for “peptide.”
as §5, with “µL” for “uL”, “drug” for “peptide”, “methods (1).” for “methods.”, “concentration.” for “concentration. The plates were then inoculated with 10 μL of the inoculum resulting in a final cell density of approximately 5×10^5 CFU/mL, per well.”
as §10, §11

[15] = system: Klebsiella pneumoniae isolates (n = 101); test: Broth microdilution MIC, clinical isolate panel; type: cell-based; settings: Klebsiella pneumoniae (n = 101)
Experimental: as §7, §8, §9, §3
as §4, with “drug” for “peptide”, “drug.” for “peptide.”
as §5, with “µL” for “uL”, “drug” for “peptide”, “methods (1).” for “methods.”, “concentration.” for “concentration. The plates were then inoculated with 10 μL of the inoculum resulting in a final cell density of approximately 5×10^5 CFU/mL, per well.”
as §10, §11

[16] = system: Pseudomonas aeruginosa isolates (n = 109); test: Broth microdilution MIC, clinical isolate panel; type: cell-based
Experimental: as §7, §8, §9, §3
as §4, with “drug” for “peptide”, “drug.” for “peptide.”
as §5, with “µL” for “uL”, “drug” for “peptide”, “methods (1).” for “methods.”, “concentration.” for “concentration. The plates were then inoculated with 10 μL of the inoculum resulting in a final cell density of approximately 5×10^5 CFU/mL, per well.”
as §10, §11

C[C@@H](O)[C@H]1C(=O)N2C(C(=O)O)=C(S[C@@H]3CN[C@H](C(=O)N(C)C)C3)[C@H](C)[C@H]12 [Meropenem]
MIC [1]: 0.015 µg/mL (≈ 0.0391 µM) | MIC [2]: 0.008 µg/mL (≈ 0.0209 µM) | MIC [3]: 0.25 µg/mL (≈ 0.652 µM) | MIC [4]: 0.12 µg/mL (≈ 0.313 µM) | MIC [5]: 0.015 µg/mL (≈ 0.0391 µM) | MIC [6]: ≤ 0.004 µg/mL | MIC [7]: 0.25 µg/mL (≈ 0.652 µM) | MIC [8]: 4 µg/mL (≈ 10.4 µM) | MIC [9]: 0.5 µg/mL (≈ 1.3 µM) | MIC [10]: 0.015 µg/mL (≈ 0.0391 µM) | MIC [11]: 4 µg/mL (≈ 10.4 µM) | % R (percent of isolates resistant, clinical breakpoints) [12]: 3.9% | MIC50 [13]: > 8 µg/mL | MIC90 [13]: > 8 µg/mL | MIC ([13]; read-out: Mode (MIC)): > 8 µg/mL | % R (percent of isolates resistant, clinical breakpoints) [14]: 1% | MIC50 [14]: 0.015 µg/mL (≈ 0.0391 µM) | MIC90 [14]: 0.03 µg/mL (≈ 0.0782 µM) | MIC ([14]; read-out: Mode (MIC)): 0.015 µg/mL (≈ 0.0391 µM) | % R (percent of isolates resistant, clinical breakpoints) [15]: Fifty percent | MIC50 [15]: 4 µg/mL (≈ 10.4 µM) | MIC90 [15]: > 8 µg/mL | MIC ([15]; read-out: Mode (MIC)): > 8 µg/mL | MIC50 ([16]; Pseudomonas aeruginosa): 0.5 µg/mL (≈ 1.3 µM) | MIC90 ([16]; Pseudomonas aeruginosa): > 8 µg/mL | % R (percent of isolates resistant, clinical breakpoints) ([16]; Pseudomonas aeruginosa (n = 109)): 20% | MIC ([16]; Pseudomonas aeruginosa, read-out: Mode (MIC)): 0.25 µg/mL (≈ 0.652 µM)
